Legend:
[1] = tested on: fast-spiking interneurons (FSI); experiment: Hippocampal brain slice voltage clamp recording, outward K+ current from FSI; type: cell-based, rat; conditions: 10 μM; for Outward current in presence of compound relative to baseline: step to 0 mV, baseline 100%
Experimental: Male Sprague Dawley rats (18˜24 days old) from Shanghai Laboratory Animal Center (Shanghai, China) were used for brain slice experiments. They were housed in groups of five in controlled conditions (temperature of 23±3° C., humidity of 40-70%, and 12:12 light-dark cycle with lights on at 5:00 am) and free access to food and water. All procedures were conducted in agreement with the guideline of Institutional Animal Care and Use Committee at ChemPartner. Ethical approval was obtained by the The Danish Animal Experimentation Inspectorate (journal no. 2014 15 0201 00339).
Animals were decapitated by a guillotine and their brains quickly removed and placed in ice-cold modified artificial cerebral spinal fluid (ACSF) containing (in mM): 110 sucrose, 60 NaCl, 3 KCl, 5 glucose, 28 NaHCO3, 1.25 NaH2PO4, 0.5 CaCl2 and 7 MgCl2, aerated with 95% O2/5% CO2. The brains were block-trimmed and glued onto the stage of a vibratome (VT1200S, Leica Microsystems Inc., Bannockburn, Ill., USA). Parasagittal hippocampal slices (300 μm) were cut and incubated in the regular carbogenated ACSF containing (in mM): 119 NaCl, 2.5 KCl, 1.2 Na2HPO4, 25 NaHCO3, 2.5 CaCl2, 1.3 MgCl2, 10 glucose at 35° C. for the first 60 min and then transferred to room temperature prior to recordings.
In the hippocampal CA1 pyramidal cell layer, fast-spiking interneurons (FSI) or pyramidal (PYR) cells were visualized using differential interference contrast-infrared (DIC-IR)-assisted microscopy and whole-cell patch clamp recordings performed using an Axon Multiclamp 700B amplifier (Molecular Devices, Union City, Calif.). FSI were selected based on non-pyramidal shape and multipolar dendrites. […]
Whole cell patch clamp recordings in voltage clamp mode were used to study the outward K^+ current from FSI or PYR cells. […] Outward K^+ current was recorded in the presence of 1 μM TTX and 10 μM DNQX in the ACSF to inhibit voltage-gated Na^+ channels and AMPA channels, respectively. […] For all recordings, the access resistance was monitored throughout the experiments. […]

[2] = Unbound fraction in plasma (mouse PK table footnote); type: in vitro ADME
[3] = Unbound fraction in brain (mouse PK table footnote); type: in vitro ADME

fraction unbound [2]	fraction unbound [3]	Structure (SMILES)	Reversibility of compound-mediated increase in outward K+ current (Wash) [1]	Outward current in presence of compound relative to baseline [1]
0.1	0.1	Cc1cnc(CNC(=O)c2ccn(S(=O)(=O)c3ccc(F)cc3C)c2)cn1 [Compound 90, 1-(4-fluoro-2-methylbenzene-1-sulfonyl)-N-[(5-methylpyrazin-2-yl)methyl]-1H-pyrrole-3-carboxamide]	largely reversible	144±4%
0.08	0.11	Cc1ccc(S(=O)(=O)n2ccc(C(=O)NCc3ncco3)c2)cc1 [Compound 86, 1-(4-methylbenzene-1-sulfonyl)-N-[(1,3-oxazol-2-yl)methyl]-1H-pyrrole-3-carboxamide]	–	121±2%

— patent US20200131156A1, “ARYLSULFONYLPYROLECARBOXAMIDE DERIVATIVES AS Kv3 POTASSIUM CHANNEL ACTIVATORS” (H. Lundbeck A/S, priority 2018, published 2020)
